{"source": "patent US4717731A", "about": "“7H thieno[2,3-a]quinolizines, useful as α2 -andrenoceptor antagonist” (John Wyeth & Brother Limited, priority 1984, dated 1988)", "key": {"α2 -adrenoceptor": {"test_system": "α2 -adrenoceptor", "test": "α2-adrenoceptor antagonistic activity on the rat field stimulated vas deferens preparation (vs clonidine)", "conditions": "for α2 /α1 selectivity [antilog of (α2 pA2 -α1 pA2)]: from vas deferens α2 pA2 and anococcygeus α1 pA2; for pA2 for α2 -adrenoceptor antagonistic activity: rat field stimulated vas deferens, agonist clonidine, Schild plot, 90 min", "protocol": "The compounds of the invention are tested for α2 -adrenoceptor antagonistic activity on the rat field stimulated vas deferens preparation using a modification of the method of Drew, Eur. J. Pharmac., 1977, 42, 123-130. The procedure is described below.\nDesheathed vasa deferentia from sexually mature rats were suspended in a 6 ml organ bath in Krebs solution at 37° and bubbled with 5% CO2 in oxygen. Platinum ring electrodes were positioned above and below the tissue for field stimulation, the stimulus parameters being 0.1 Hz 1 ms pulse width at supramaximal voltage. Twitch responses were recorded isotonically with a 0.5 g loading. Clonidine hydrochloride was used as the α-adrenoceptor agonist and cumulative concentration-response curves were constructed for the inhibition of twitch obtained with clonidine in the range 0.125 to 4 ng ml^-1. After washing out clonidine, the twitch response quickly recovered and an antagonist was then introduced into the Krebs reservoir. Clonidine concentration-response curves were repeated 90 min after introduction of the antagonist. The concentration of clonidine producing 50% inhibition of twitch before and after introduction of antagonist were obtained and the dose-ratio for clonidine was calculated. Various concentrations of the antagonists were used.\nChemother., 1959, 14, 48-58 and the values of pA2 and slope were calculated."}, "α1 -adrenoceptors": {"test_system": "α1 -adrenoceptors", "test": "α1 antagonistic activity on the isolated anococcygeus muscle of the rat (vs phenylephrine or methoxamine)", "conditions": "agonist phenylephrine or methoxamine, Schild method, 30 min", "description": "The compounds of the invention generally antagonise the α2 -adrenoceptors to a much greater extent than the α1 -adrenoceptors. The α1 antagonistic activity can be evaluated by a number of different methods. One method involves assessing the activity on the isolated anococcygeus muscle of the rat. The method is based on that of Gillespie, Br.J.Pharmac., 1972, 45, 404-416. In the procedure male rats (250-360 g) are killed by a blow on the head and bled. The two anococcygeus muscles are removed from their position in the midline of the pelvic cavity, where they arise from the upper coccygeal vertebrae. The muscles are suspended in 5 ml organ baths in Krebs solution containing 10^-4 M ascorbic acid; to prevent drug oxidation. The tissues are gassed with a 95% oxygen, 5% CO2 mixture and maintained at 37°. Longitudinal muscle contractions are recorded using isotonic transducers. Cumulative dose response curves are then obtained to phenylephrine or in some cases methoxamine, both agents being […] alpha adrenoceptor agonists. The concentration range of phenylephrine or methoxamine used is 0.02 to 0.8 μg.ml^-1. The agonist is then washed from the bath and the test drug added to the bathing medium at a concentration of 10^-6 M. After 30 min equilibration with the test drug a further agonist dose response curve is obtained. […]"}}, "data": [{"compound": "CCCS(=O)(=O)N(C)[C@@H]1CCN2CCc3ccsc3[C@@H]2C1", "note": "(relative stereo) [Example 2, N-(4,5,8,9,10,10aα-hexahydro-7H-thieno[2,3-a]quinolizin-9β-yl)-N-methylpropanesulphonamide]", "values": [{"measurement": "α2 /α1 selectivity [antilog of (α2 pA2 -α1 pA2)]", "setting": "α2 -adrenoceptor", "result": 40}, {"measurement": "pA2 for α2 -adrenoceptor antagonistic activity", "setting": "α2 -adrenoceptor", "result": 7.5}, {"measurement": "pA2 values for α1 antagonistic activity", "setting": "α1 -adrenoceptors", "result": 5.9}]}, {"compound": "CCS(=O)(=O)NCCN([C@@H]1CCN2CCc3ccsc3[C@@H]2C1)S(=O)(=O)CC", "note": "(relative stereo) [Example 5, N-(4,5,8,9α,10,10aα-Hexahydro-7H-thieno[2,3-a]quinolizin-9-yl)-N-(2-ethanesulphonamidoethyl)ethane sulphonamide]", "values": [{"measurement": "α2 /α1 selectivity [antilog of (α2 pA2 -α1 pA2)]", "setting": "α2 -adrenoceptor", "result": 132}, {"measurement": "pA2 for α2 -adrenoceptor antagonistic activity", "setting": "α2 -adrenoceptor", "result": 7.31}, {"measurement": "pA2 values for α1 antagonistic activity", "setting": "α1 -adrenoceptors", "result": 5.18}]}]}
